Entries after “also recorded” stand apart in the source; their conditions may differ. Where a SMILES comes first, the peptide text is derived from it.
Target: T1, NEP (Rattus norvegicus, UniProt P07861)
T1 construct: incubations of membrane and fresh tissue slice preparations from nervous tissues; from tissue; host or cells: dorsal spinal cord of male Wistar rats (fresh slices or 100 000 x g membrane fraction)
T1 sequence (P07861 1-750): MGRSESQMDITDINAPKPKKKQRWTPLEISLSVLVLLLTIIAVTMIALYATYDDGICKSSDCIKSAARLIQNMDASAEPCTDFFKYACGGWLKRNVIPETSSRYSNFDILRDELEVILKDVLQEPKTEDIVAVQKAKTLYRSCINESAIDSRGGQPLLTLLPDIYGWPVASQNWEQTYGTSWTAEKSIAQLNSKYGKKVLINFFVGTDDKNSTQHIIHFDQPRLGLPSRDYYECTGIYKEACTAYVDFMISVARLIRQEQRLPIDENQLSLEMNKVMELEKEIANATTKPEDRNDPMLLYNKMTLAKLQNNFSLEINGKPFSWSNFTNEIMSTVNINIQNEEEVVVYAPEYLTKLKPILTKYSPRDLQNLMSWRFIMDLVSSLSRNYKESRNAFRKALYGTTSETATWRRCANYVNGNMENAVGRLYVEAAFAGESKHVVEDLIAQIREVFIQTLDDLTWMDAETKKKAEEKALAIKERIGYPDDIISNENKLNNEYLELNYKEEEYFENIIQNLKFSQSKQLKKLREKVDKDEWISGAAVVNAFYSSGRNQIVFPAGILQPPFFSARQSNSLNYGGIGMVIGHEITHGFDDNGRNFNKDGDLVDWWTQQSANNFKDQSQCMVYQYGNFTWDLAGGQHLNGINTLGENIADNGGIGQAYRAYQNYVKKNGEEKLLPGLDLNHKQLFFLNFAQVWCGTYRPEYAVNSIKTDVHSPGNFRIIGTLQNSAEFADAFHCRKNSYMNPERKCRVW
Experiment: 3H-Substance P hydrolysis by rat spinal cord membrane preparations
Assay type: biochemical
Method: FIG. 1-A: Influence of spinal cord membrane protein concentration on Substance P hydrolysis (25 nM) in the presence or absence of the synthetic NEP inhibitor, Phosphoramidon, 10 μM. Each point represents the percent of 3H-substance P hydrolyzed by spinal cord membrane incubated 15 min. at 30° C. in a 250 μl final volume of Tris/HCl buffer. […] Each point represents the percent of 3H-substance P hydrolyzed by 250 μg membrane proteins incubated at 25° C. in a 250 μl final volume of Tris/HCl buffer. FIG. 3-B: Concentration-dependent inhibition by […] NO: 2) of 3H-Substance P (12.5 nM) catabolism by rat spinal cord membrane preparations. Comparison with-a NEP inhibitor, Phosphoramidon and, -CPB and DPPIV inhibitors, […] inhibitor. Comparison between the inhibitory activity exerted by […] NO: 2) peptide alone or in combination with CPB and DPPIV inhibitors. […] The metabolism rate of the NEP-sensitive peptides was measured using the both NEP substrates involved in the signaling of the nociceptive response: the neuropeptides Met-enkephalin and Substance P. […] The temperature and the time of the incubation as well as the concentration of substrate and of membrane enzyme are defined according to the results such as the NEP hydrolysis activity will be measured under conditions of initial velocity. […] The radioactivity of eluted and isolated compounds is determined by liquid scintillation spectrometry.

## N=C(N)NCCC[C@H](NC(=O)[C@@H]1CCCN1C(=O)[C@H](CC(N)=O)NC(=O)[C@H](Cc1c[nH]cn1)NC(=O)[C@@H](N)CCC(N)=O)C(=O)O [sialorphin, Gln-His-Asn-Pro-Arg] (H-QHNPR-OH; N-terminus and C-terminus assumed)
Peptide alone, listed as SMR1-QHNPR
  inhibitory potency / protection of Substance P compared with reference NEP inhibitors: equivalent t0 that obtained with Phosphoramidon; also recorded: equivalent to that of two well-known NEP-specific inhibitors, Thiorphan and Phosphoramidon
Peptide combined with the inhibitors of CPB and DPPIV
  NEP inhibiting activity compared with phosphoramidon: greater than that of phosphoramidon
